# According to PubChem BioAssay AID180 (DTP/NCI, 2004):
# Values joined by “and” are separate entries in the source; they are usually repeats but may differ in a detail not shown here. Equal values may be shown once.
# System: BDF1 mice, Adenocarcinoma 755 s.c., tumor weight T/C
# Test: NCI In Vivo Anticancer Drug Screen. Data for tumor model Adenocarcinoma 755 (subcutaneous) in B6D2F1 (BDF1) mice
# Details: endpoint: mean tumor weight, higher = larger tumour
# Method in brief: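 Transplantable tumor implanted; mice dosed with compound or vehicle; survival or tumor size recorded; ratio of treated to vehicle control reported.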
# [1] = dose: 1.75 mg/kg/injection, schedule: Q01DX011 (ip), vehicle: carboxymethylcellulose (CMC)
# [2] = dose: 3.5 mg/kg/injection, schedule: Q01DX011 (ip), vehicle: carboxymethylcellulose (CMC)
smiles,measurement,setting,value
CC(=O)C(CCC(=O)O)(CCC(=O)O)c1ccccc1,T/C,"dose: 30.0 mg/kg/injection, schedule: Q01DX011 (ip), vehicle: other",87 % of control
same,T/C,"dose: 60.0 mg/kg/injection, schedule: Q01DX011 (ip), vehicle: other",71 % of control
same,T/C,"dose: 120.0 mg/kg/injection, schedule: Q01DX011 (ip), vehicle: other",117 % of control
same,T/C,"dose: 240.0 mg/kg/injection, schedule: Q01DX011 (ip), vehicle: other",97 % of control
O=S(=O)(Nc1ccccc1)c1ccc(C2CC3(Cl)C(Cl)=C(Cl)C2(Cl)C3(Cl)Cl)cc1 (stereo not drawn),T/C,"dose: 28.12 mg/kg/injection, schedule: Q01DX011 (ip), vehicle: methylcellulose (MC)",90 % of control and 109 % of control
same,T/C,"dose: 112.5 mg/kg/injection, schedule: Q01DX011 (ip), vehicle: methylcellulose (MC)",95 % of control and 107 % of control
same,T/C,"dose: 225.0 mg/kg/injection, schedule: Q01DX011 (ip), vehicle: methylcellulose (MC)",69 % of control
CCOC(=O)Sc1ncnc2nc[nH]c12,T/C,"dose: 0.21 mg/kg/injection, schedule: Q01DX011 (ip), vehicle: carboxymethylcellulose (CMC)",87 % of control
same,T/C,"dose: 0.42 mg/kg/injection, schedule: Q01DX011 (ip), vehicle: carboxymethylcellulose (CMC)",41 % of control
same,T/C,"dose: 0.85 mg/kg/injection, schedule: Q01DX011 (ip), vehicle: carboxymethylcellulose (CMC)",50 % of control
same,T/C,[1],3 % of control and 7 % of control and 12 % of control
same,T/C,[2],4 % of control
same,T/C,"dose: 7.0 mg/kg/injection, schedule: Q01DX011 (ip), vehicle: carboxymethylcellulose (CMC)",1 % of control and 5 % of control
same,T/C,"dose: 14.0 mg/kg/injection, schedule: Q01DX011 (ip), vehicle: carboxymethylcellulose (CMC)",2 % of control and 8 % of control
same,T/C,"dose: 28.0 mg/kg/injection, schedule: Q01DX011 (ip), vehicle: carboxymethylcellulose (CMC)",8 % of control
same,T/C,"dose: 56.0 mg/kg/injection, schedule: Q01DX011 (ip), vehicle: carboxymethylcellulose (CMC)",8 % of control
same,T/C,"dose: 112.0 mg/kg/injection, schedule: Q01DX011 (ip), vehicle: carboxymethylcellulose (CMC)",7 % of control
CCCCn1cnc2c(SCc3ccc(Cl)cc3Cl)nc(N)nc21,T/C,"dose: 50.0 mg/kg/injection, schedule: Q01DX011 (ip), vehicle: methylcellulose (MC)",61 % of control
same,T/C,"dose: 100.0 mg/kg/injection, schedule: Q01DX011 (ip), vehicle: methylcellulose (MC)",46 % of control
same,T/C,"dose: 200.0 mg/kg/injection, schedule: Q01DX011 (ip), vehicle: methylcellulose (MC)",35 % of control
same,T/C,"dose: 400.0 mg/kg/injection, schedule: Q01DX011 (ip), vehicle: methylcellulose (MC)",5 % of control
CSc1ncc(C)c(=O)[nH]1,T/C,"dose: 15.0 mg/kg/injection, schedule: Q01DX011 (ip), vehicle: methylcellulose (MC)",113 % of control
same,T/C,"dose: 31.0 mg/kg/injection, schedule: Q01DX011 (ip), vehicle: methylcellulose (MC)",124 % of control
same,T/C,"dose: 62.0 mg/kg/injection, schedule: Q01DX011 (ip), vehicle: methylcellulose (MC)",99 % of control
Cc1cc(N(CCCl)CCCl)ccc1N=Nc1ccccc1C(=O)O,T/C,"dose: 0.44 mg/kg/injection, schedule: Q01DX011 (ip), vehicle: carboxymethylcellulose (CMC)",115 % of control
same,T/C,"dose: 0.87 mg/kg/injection, schedule: Q01DX011 (ip), vehicle: carboxymethylcellulose (CMC)",39 % of control
same,T/C,[1],53 % of control
same,T/C,[2],20 % of control
CCCC(=O)OCC1OC(n2cnc3c(=S)nc(N)[nH]c32)C(OC(=O)CCC)C1OC(=O)CCC (stereo not drawn),T/C,"dose: 0.16 mg/kg/injection, schedule: Q01DX011 (ip), vehicle: saline",57 % of control
same,T/C,"dose: 0.38 mg/kg/injection, schedule: Q01DX011 (ip), vehicle: saline",88 % of control
same,T/C,"dose: 0.58 mg/kg/injection, schedule: Q01DX011 (ip), vehicle: saline",82 % of control
same,T/C,"dose: 1.3 mg/kg/injection, schedule: Q01DX011 (ip), vehicle: saline",31 % of control
same,T/C,"dose: 2.0 mg/kg/injection, schedule: Q01DX011 (ip), vehicle: saline",18 % of control
same,T/C,"dose: 3.0 mg/kg/injection, schedule: Q01DX011 (ip), vehicle: saline",4 % of control
same,T/C,"dose: 6.0 mg/kg/injection, schedule: Q01DX011 (ip), vehicle: carboxymethylcellulose (CMC)",2 % of control and 11 % of control
same,T/C,"dose: 12.0 mg/kg/injection, schedule: Q01DX011 (ip), vehicle: carboxymethylcellulose (CMC)",2 % of control and 3 % of control
same,T/C,"dose: 24.0 mg/kg/injection, schedule: Q01DX011 (ip), vehicle: carboxymethylcellulose (CMC)",1 % of control
CCn1cnc2c(SC(C)C)ncnc21,T/C,"dose: 16.0 mg/kg/injection, schedule: Q01DX011 (ip), vehicle: carboxymethylcellulose (CMC)",42 % of control
same,T/C,"dose: 31.0 mg/kg/injection, schedule: Q01DX011 (ip), vehicle: carboxymethylcellulose (CMC)",4 % of control
CSc1ncc(Br)c(Sc2nc(N)nc3nc[nH]c23)n1,T/C,"dose: 1.0 mg/kg/injection, schedule: Q01DX011 (ip), vehicle: methylcellulose (MC)",75 % of control
same,T/C,"dose: 3.0 mg/kg/injection, schedule: Q01DX011 (ip), vehicle: methylcellulose (MC)",87 % of control
same,T/C,"dose: 6.0 mg/kg/injection, schedule: Q01DX011 (ip), vehicle: methylcellulose (MC)",14 % of control
same,T/C,"dose: 12.0 mg/kg/injection, schedule: Q01DX011 (ip), vehicle: methylcellulose (MC)",3 % of control
same,T/C,"dose: 15.0 mg/kg/injection, schedule: Q01DX011 (ip), vehicle: carboxymethylcellulose (CMC)",10 % of control
Nc1nc(N)c2[nH]c(N=Nc3ccc(N(CCO)CCO)cc3)nc2n1,T/C,"dose: 37.5 mg/kg/injection, schedule: Q01DX011 (ip), vehicle: saline",152 % of control
same,T/C,"dose: 150.0 mg/kg/injection, schedule: Q01DX011 (ip), vehicle: saline",65 % of control
CSc1ncnc2c1ncn2CCO,T/C,"dose: 25.0 mg/kg/injection, schedule: Q01DX011 (ip), vehicle: methylcellulose (MC)",119 % of control
O=C1C=C(c2ccccc2)C(=O)C=C1c1ccccc1,T/C,"dose: 12.5 mg/kg/injection, schedule: Q01DX011 (ip), vehicle: other",72 % of control
same,T/C,"dose: 25.0 mg/kg/injection, schedule: Q01DX011 (ip), vehicle: other",48 % of control
CC(=O)OCC(=O)[C@@]1(O)CC[C@H]2[C@@H]3C[C@H](C)C4=CC(=O)C=C[C@]4(C)[C@H]3[C@@H](O)C[C@@]21C,T/C,"dose: 2.5 mg/kg/injection, schedule: Q01DX011 (sc), vehicle: steriod suspending solution",70 % of control
same,T/C,"dose: 3.8 mg/kg/injection, schedule: Q01DX011 (sc), vehicle: steriod suspending solution",77 % of control
same,T/C,"dose: 5.0 mg/kg/injection, schedule: Q01DX011 (sc), vehicle: steriod suspending solution",57 % of control
same,T/C,"dose: 7.5 mg/kg/injection, schedule: Q01DX011 (sc), vehicle: steriod suspending solution",68 % of control
same,T/C,"dose: 10.0 mg/kg/injection, schedule: Q01DX011 (sc), vehicle: steriod suspending solution",35 % of control
same,T/C,"dose: 15.0 mg/kg/injection, schedule: Q01DX011 (sc), vehicle: steriod suspending solution",37 % of control
same,T/C,"dose: 20.0 mg/kg/injection, schedule: Q01DX011 (sc), vehicle: steriod suspending solution",25 % of control and 40 % of control
same,T/C,"dose: 40.0 mg/kg/injection, schedule: Q01DX011 (sc), vehicle: steriod suspending solution",14 % of control and 20 % of control
same,T/C,"dose: 80.0 mg/kg/injection, schedule: Q01DX011 (sc), vehicle: steriod suspending solution",6 % of control
